Read-outs that look alike come from different tables or passages of the source.
Target: T1, Chk1 (Homo sapiens, UniProt O14757)
T1 construct: purchased Upstate Biotechnology
T1 sequence (O14757 1-476): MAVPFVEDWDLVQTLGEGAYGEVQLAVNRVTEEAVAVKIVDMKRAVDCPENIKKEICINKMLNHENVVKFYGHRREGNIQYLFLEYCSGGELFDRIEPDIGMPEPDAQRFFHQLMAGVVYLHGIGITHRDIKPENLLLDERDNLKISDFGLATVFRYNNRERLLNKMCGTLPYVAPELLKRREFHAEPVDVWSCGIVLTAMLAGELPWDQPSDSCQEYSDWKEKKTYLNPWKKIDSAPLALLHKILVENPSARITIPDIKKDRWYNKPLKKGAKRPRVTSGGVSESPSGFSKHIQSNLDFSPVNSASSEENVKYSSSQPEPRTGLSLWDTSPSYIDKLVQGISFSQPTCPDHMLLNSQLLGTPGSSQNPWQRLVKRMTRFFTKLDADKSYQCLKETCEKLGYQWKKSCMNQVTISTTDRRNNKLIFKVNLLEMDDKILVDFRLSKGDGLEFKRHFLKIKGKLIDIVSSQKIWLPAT
Test: Chk1 assay: incorporation of γ-33P ATP into immobilized myelin basic protein
Type: biochemical
Method: Chk1 and Chk2 assays were performed by measuring incorporation of γ-^33P ATP into immobilized myelin basic protein (MBP). High binding white 384 well plates (Greiner) were coated with MBP (Sigma #M-1891) by incubation of 60ul/well of 20µg/ml MBP in Tris-buffered saline (TBS; 50mM Tris pH 8.0, 138mM NaCl, 2.7mM KCl) for 24 hours at 4° C. Plates were washed 3X with 100µl TBS. Kinase reactions were carried out in a total volume of 34µl in kinase buffer (5mM Hepes pH 7.6, 15mM NaCl, 0.01% bovine gamma globulin (Sigma #I-5506), 10mM MgCl2, 1mM DTT, 0.02% TritonX-100). Compound dilutions were performed in DMSO and added to assay wells to a final DMSO concentration of 1%. Each data point was measured in duplicate, and at least two duplicate assays were performed for each individual compound determination. Chkl and Chk2 enzymes (Upstate Biotechnology) were added to final concentrations of 10nM (Chkl) or 20nM (Chk2). A mixture of unlabeled ATP and γ-^33P ATP was added to start the reaction (2x10^6 cpm of γ-^33P ATP per well (3000Ci/mmole) and either 10µM or 30µM unlabeled ATP (for Chkl and Chk2 assays respectively). The reaction was carried out for 1 hour at room temperature with shaking. Plates were washed 7x with TBS, followed by the addition of 50µl/well scintillation fluid (Wallac). Plates were read using a Wallac Trilux counter. This is only one format of such assays, various other formats are possible, as known to those skilled in the art.
The above assay procedure can be used to determine the IC50 for inhibition and/or the inhibition constant Ki. The IC50 is defined as the concentration of compound required to reduce the enzyme activity by 50% under the conditions of the assay. […] The Ki for a compound may be determined from the IC50 based on three assumptions. First, only one compound molecule binds to the enzyme and there is no cooperativity. […] Third, the enzymatic rate of the enzyme-inhibitor complex is zero. The rate (i.e., compound concentration) data are fitted to the equation: V = Vmax E0 [I-((E0+I0+Kd)-sqrt(((E0+I0+Kd))^2 -4E0 I0))/(2E0)] [formula]

[1] = Table 11, inhibition given as IC50 class symbol

Compound	IC50 (Table 11, Chk1 only)	also measured
CNC(=O)c1nc(-c2ccc(F)c(C)c2)cnc1N [compound 61, 3-amino-6-(4-fluoro-3-methylphenyl)-N-methylpyrazine-2-carboxamide]	50 to 1000 nM	–
NC(=O)c1nc(-c2cccc(OC(F)(F)F)c2)cnc1N [compound 28, 3-amino-6-{3-[(trifluoromethyl)oxy]phenyl}pyrazine-2-carboxamide]	1000 to 10000 nM	–
CC(=O)Nc1cccc(-c2cnc(N)c(C(N)=O)n2)c1 [compound 30, 6-[3-(acetylamino)phenyl]-3-aminopyrazine-2-carboxamide]	1000 to 10000 nM	–
NC(=O)c1nc(-c2cccc(Cl)c2)cnc1N [compound 3, 3-amino-6-(3-chlorophenyl)pyrazine-2-carboxamide]	> 10000 nM	–
Nc1ncc(-c2cccc(C(=O)NCc3ccc(F)c(Cl)c3)c2)nc1C(=O)N[C@H]1CCCNC1 [compound 1006, 3-amino-6-[3-({[(3-chloro-4-fluorophenyl)methyl]amino}carbonyl)phenyl]-N-[(3S)-piperidin-3-yl]pyrazine-2-carboxamide]	–	IC50: < 50 nM
CNC(=O)c1nc(-c2ccc(F)cc2)cnc1N [compound 22, 3-amino-6-(4-fluorophenyl)-N-methylpyrazine-2-carboxamide]	1000 to 10000 nM	–
CNC(=O)c1nc(-c2cccnc2)cnc1N [compound 62, 3-amino-N-methyl-6-pyridin-3-ylpyrazine-2-carboxamide]	1000 to 10000 nM	–
CNC(=O)c1nc(-c2noc(-c3cccnc3)n2)cnc1N [compound 66, 3-amino-N-methyl-6-(5-pyridin-3-yl-1,2,4-oxadiazol-3-yl)pyrazine-2-carboxamide]	> 10000 nM	–
Nc1ncc(-c2cccc(C(=O)N[C@H]3CCc4ccccc43)c2)nc1C(=O)N[C@H]1CCCNC1 [compound 764, 3-amino-6-(3-{[(1S)-2,3-dihydro-1H-inden-1-ylamino]carbonyl}phenyl)-N-[(3S)-piperidin-3-yl]pyrazine-2-carboxamide]	–	IC50 [1]: < 50 nM
N=C(NNc1ccccc1)c1nc(-c2cccc(C(=O)N[C@H]3CCc4ccccc43)c2)cnc1N [compound 720, 3-{5-amino-6-[imino(2-phenylhydrazino)methyl]pyrazin-2-yl}-N-[(1S)-2,3-dihydro-1H-inden-1-yl]benzamide]	–	IC50 [1]: > 10000 nM
Nc1ncc(-c2ccccc2)nc1C(=O)N1CCCC1 [compound 11, 5-phenyl-3-(pyrrolidin-1-ylcarbonyl)pyrazin-2-amine]	> 10000 nM	–
Nc1ncc(-c2cccc(C(=O)NCc3cccnc3)c2)nc1C(=O)N[C@H]1CCNC1 [compound 762, 3-amino-6-(3-{[(pyridin-3-ylmethyl)amino]carbonyl}phenyl)-N-[(3S)-pyrrolidin-3-yl]pyrazine-2-carboxamide]	–	IC50 [1]: 50 to 1000 nM
CC(C)(C)c1nnc(-c2nc(-c3cccc(CO)c3)cnc2N)[nH]1 [compound 569, (3-{5-amino-6-[5-(1,1-dimethylethyl)-4H-1,2,4-triazol-3-yl]pyrazin-2-yl}phenyl)methanol]	–	IC50 [1]: 1000 to 10000 nM
CCOc1ccc(-c2cnc(N)c(C(N)=O)n2)cc1 [compound 23, 3-amino-6-[4-(ethyloxy)phenyl]pyrazine-2-carboxamide]	1000 to 10000 nM	–
CC(C)(C)OC(=O)N1CC[C@H](NC(=O)c2nc(-c3cccc(C(=O)NCc4ccc(Cl)cc4)c3)cnc2N)C1 [compound 756, 1,1-dimethylethyl (3S)-3-[({3-amino-6-[3-({[(4-chlorophenyl)methyl]amino}carbonyl)phenyl]pyrazin-2-yl}carbonyl)amino]pyrrolidine-1-carboxylate]	–	IC50 [1]: 50 to 1000 nM
Cc1ccc(C(=O)Nc2cccc(-c3cnc(N)c(C(=O)N[C@H]4CCCNC4)n3)c2)cn1 [compound 978, 3-amino-6-(3-{[(6-methylpyridin-3-yl)carbonyl]amino}phenyl)-N-[(3S)-piperidin-3-yl]pyrazine-2-carboxamide]	–	IC50: < 50 nM
CNc1ncc(-c2ccccc2)nc1C(N)=O [compound 38, 3-(methylamino)-6-phenylpyrazine-2-carboxamide]	> 10000 nM	–
Nc1ncc(-c2cccc(C(=O)NCc3cc(C(F)(F)F)ccc3Cl)c2)nc1C(=O)N[C@H]1CCCNC1 [compound 994, 3-amino-6-{3-[({[2-chloro-5-(trifluoromethyl)phenyl]methyl}amino)carbonyl]phenyl}-N-[(3S)-piperidin-3-yl]pyrazine-2-carboxamide]	–	IC50: < 50 nM
NC(=O)c1nc(-c2cccc(OCc3ccccc3)c2)cnc1N [compound 35, 3-amino-6-{3-[(phenylmethyl)oxy]phenyl}pyrazine-2-carboxamide]	50 to 1000 nM	–
NC(=O)c1nc(-c2cc3ccccc3o2)cnc1N [compound 37, 3-amino-6-(1-benzofuran-2-yl)pyrazine-2-carboxamide]	> 10000 nM	–
CC(C)(C)OC(=O)N1CC[C@H](CNC(=O)c2nc(-c3cccc(C(=O)N[C@H]4CCc5ccccc54)c3)cnc2N)C1 [compound 784, 1,1-dimethylethyl (3R)-3-[({[3-amino-6-(3-{[(1S)-2,3-dihydro-1H-inden-1-ylamino]carbonyl}phenyl)pyrazin-2-yl]carbonyl}amino)methyl]pyrrolidine-1-carboxylate]	–	IC50 [1]: > 10000 nM
CNC(=O)c1nc(-c2noc(-c3ccncc3)n2)cnc1N [compound 73, 3-amino-N-methyl-6-(5-pyridin-4-yl-1,2,4-oxadiazol-3-yl)pyrazine-2-carboxamide]	> 10000 nM	–
Nc1ncc(-c2ccccc2)nc1C(=O)NCCc1ccccc1 [compound 1, 3-amino-6-phenyl-N-(2-phenylethyl)pyrazine-2-carboxamide]	> 10000 nM	–
Nc1ncc(-c2ccccc2)nc1C(=O)NCC1CC1 [compound 12, 3-amino-N-(cyclopropylmethyl)-6-phenylpyrazine-2-carboxamide]	> 10000 nM	–
Nc1ncc(-c2cccc(C(=O)NCc3ccc(C(F)(F)F)cc3F)c2)nc1C(=O)N[C@H]1CCCNC1 [compound 1001, 3-amino-6-{3-[({[2-fluoro-4-(trifluoromethyl)phenyl]methyl}amino)carbonyl]phenyl}-N-[(3S)-piperidin-3-yl]pyrazine-2-carboxamide]	–	IC50: < 50 nM

Second part, led by results:

IC50 (Table 11, Chk1 only)	Compound	also measured
1000 to 10000 nM	NNC(=O)c1nc(-c2ccccc2)cnc1N [compound 48, 3-amino-6-phenylpyrazine-2-carbohydrazide]	–
> 10000 nM	NC(=O)c1nc(-c2ccccc2Cl)cnc1N [compound 7, 3-amino-6-(2-chlorophenyl)pyrazine-2-carboxamide]	–
1000 to 10000 nM	Nc1ncc(-c2ccccc2)nc1C(=O)NO [compound 49, 3-amino-N-hydroxy-6-phenylpyrazine-2-carboxamide]	–
1000 to 10000 nM	CNC(=O)c1nc(-c2cccc(C(C)=O)c2)cnc1N [compound 65, 6-(3-acetylphenyl)-3-amino-N-methylpyrazine-2-carboxamide]	–
1000 to 10000 nM	CNC(=O)c1nc(-c2noc(C)n2)cnc1N [compound 71, 3-amino-N-methyl-6-(5-methyl-1,2,4-oxadiazol-3-yl)pyrazine-2-carboxamide]	–
50 to 1000 nM	CNC(=O)c1nc(-c2cccc(O)c2)cnc1N [compound 45, 3-amino-6-(3-hydroxyphenyl)-N-methylpyrazine-2-carboxamide]	–
1000 to 10000 nM	COc1cccc(-c2cnc(N)c(C(N)=O)n2)c1 [compound 10, 3-amino-6-[3-(methyloxy)phenyl]pyrazine-2-carboxamide]	–
1000 to 10000 nM	CCOc1ccc(-c2cnc(N)c(C(=O)NC)n2)cc1 [compound 52, 3-amino-6-[4-(ethyloxy)phenyl]-N-methylpyrazine-2-carboxamide]	–
1000 to 10000 nM	NC(=O)c1cccc(-c2cnc(N)c(C(N)=O)n2)c1 [compound 29, 3-amino-6-[3-(aminocarbonyl)phenyl]pyrazine-2-carboxamide]	–
1000 to 10000 nM	CN(C)c1ccc(-c2cnc(N)c(C(N)=O)n2)cc1 [compound 32, 3-amino-6-[4-(dimethylamino)phenyl]pyrazine-2-carboxamide]	–
50 to 1000 nM	NC(=O)c1nc(-c2cccc(O)c2)cnc1N [compound 36, 3-amino-6-(3-hydroxyphenyl)pyrazine-2-carboxamide]	–

Source: patent publication EP1501514B1, “PROTEIN KINASE MODULATORS AND METHODS OF USE” (Exelixis, Inc., priority 2002, dated 2003)
